In the NIST ThermoML archive (doi:10.1021/je800446c):
± gives the expanded uncertainty stated by the source.

Conditions: 298.15 K; 101.33 kPa; Liquid; Pycnometric method

Row | mass density [kg/m3] | SMILES
1 | 802 ± 1 | CCC(C)O (stereo unspecified) [butan-2-ol]
2 | 781.35 ± 0.7 | CC(C)O [propan-2-ol]

Further lines, the compound ahead of its results:

Row | SMILES | mass density [kg/m3]
3 | CCCCO [butan-1-ol] | 805.85 ± 0.72
4 | CCO [ethanol] | 785.35 ± 0.71
5 | CO [methanol] | 786.57 ± 0.71
6 | CCCO [propan-1-ol] | 799.98 ± 0.72
